# Measured values taken from the Deep4Chem optical property database.
# Several values for one entry are separate records, joined by “and”; a condition that tells them apart may be missing. Equal entries are not always repeated.
# Experiment: solvent given as SMILES
compound,measurement,setting,value
CN(C)c1ccc(/C=C/c2ccc(-c3cc(-c4ccccn4)nc(-c4ccccn4)c3)cc2)cc1,absorption maximum,in C1CCOC1,375 nm
same,absorption maximum,in C1COCCO1,369 nm
same,absorption maximum,in CC#N,379 nm
same,absorption maximum,in CCO,379 nm
same,absorption maximum,in ClCCl,381 nm
CC1(C)c2ccccc2N(c2ccc3c(c2)c2ccccc2c2nc4ccccc4nc32)c2ccccc21,absorption maximum,in Cc1ccccc1,382 nm
CCCC(=O)c1c2c(c(C(=O)CCC)c3c1OC(CC(=O)OC)(C(=O)OC)O3)OCO2,absorption maximum,in CC#N,423 nm
same,absorption maximum,in CCCCCC,413 nm
same,absorption maximum,in CCO,428 nm
same,absorption maximum,in CO,428 nm
same,absorption maximum,in ClCCl,425 nm
CSc1ccc(-c2nc3sc4ccccc4c3s2)cc1,absorption maximum,in CS(C)=O,365 nm
COc1ccc(-c2cc(-c3ccc(N(C)C)cc3)nc(-c3ccccc3)n2)cc1,absorption maximum,in ClC(Cl)Cl,365 nm
Cc1ccc2c(c1)c(=O)c1ccccc1n2CCCCCC(=O)O,absorption maximum,in O,419 nm
CCCCC1=C(CCCC)c2cccc3c2c(cc2nc4ccccc4nc23)O1,absorption maximum,in ClCCl,503 nm
CS1(C)C(/C=C/C2=C(c3ccc(C(=O)O)cc3)C(=C/C=C3/N(CCCCS(=O)(=O)[O-])c4ccccc4S3(C)C)/CCC2)=[N+](CCCCS(=O)(=O)[O-])c2ccccc21,absorption maximum,in CO,800 nm
c1ccc(-c2cc3cc4cccc5c(-c6ccccc6)cc6cc7cccc2c7c3c6c45)cc1,absorption maximum,in ClCCl,439 nm
C(#Cc1ccc(-n2c3ccccc3c3ccccc32)cc1)c1ccccc1,absorption maximum,in CC#N,324 nm
same,absorption maximum,in CCCCC,323 nm
same,absorption maximum,in CO,322 nm
same,absorption maximum,in Cc1ccccc1,329 nm
same,absorption maximum,in ClC(Cl)Cl,326 nm
same,absorption maximum,in ClCCl,326 nm
CC(=O)c1ccc(-c2cc3c(ccc4sccc43)s2)cc1,absorption maximum,in ClCCl,350 nm
C[n+]1ccc(/C=C/c2ccc(N(c3ccccc3)c3ccc(/C=C/c4cc[n+](C)cc4)cc3)cc2)cc1,absorption maximum,in ClCCl,402 nm
same,absorption maximum,in O,509 nm
same,absorption maximum,in OCC(O)CO,496 nm
CN(C)c1ccc2c3c(c(=O)oc2c1)C=c1cc2c(cc1O3)=[N+](CCC(=O)O)CCC2,absorption maximum,in CC#N,593 nm
same,absorption maximum,in CO,591 nm
same,absorption maximum,in ClCCl,606 nm
same,absorption maximum,in O,587 nm
COc1cc(-c2nc3c4cccnc4c4ncccc4c3[nH]2)c(OC)cc1/C=C/c1nc2ccccc2[nH]1,absorption maximum,in C1CCOC1,401 nm
same,absorption maximum,in CC#N,398 nm
same,absorption maximum,in CO,391 nm
same,absorption maximum,in ClCCl,400 nm
CC(C)(C)c1ccc(-c2c(-c3cccc(-n4c5ccccc5c5ccccc54)c3)c(C#N)c(-c3cccc(-n4c5ccccc5c5ccccc54)c3)c(-c3ccc(C(C)(C)C)cc3)c2-c2ccc(C(C)(C)C)cc2)cc1,absorption maximum,in C1CCOC1,360 nm
Cc1cc(C)c(N(c2ccccc2)c2ccc(S(=O)(=O)c3ccc(S(=O)(=O)c4ccc(N(c5ccccc5)c5c(C)cc(C)cc5C)cc4)cc3)cc2)c(C)c1,absorption maximum,in Cc1ccccc1,351 nm
Brc1ccc(N2c3c(sc4ccccc34)Sc3sc4ccccc4c32)cc1,absorption maximum,in ClCCl,309 nm
CCN(CC)c1ccc2cc(-c3ccc(-c4ccc(-c5cc6ccccc6oc5=O)cc4)cc3)c(=O)oc2c1,absorption maximum,in ClCCl,409 nm
Cc1ccc2c(c1)nnn2-c1c(C#N)c2c(N)ncnc2n1[C@H]1C[C@H](O)[C@@H](CO)O1,absorption maximum,in CO,278 nm
CCN(CC)c1ccc2c(-c3ccccc3C(=O)[O-])c3ccc(=[N+](CC)CC)cc-3oc2c1,absorption maximum,in CC#N,555 nm
same,absorption maximum,in CCO,539 nm
same,absorption maximum,in CN(C)C=O,560 nm
same,absorption maximum,in O,554 nm
COc1ccccc1-n1nc(C#N)c(N2CCCC2)n1,absorption maximum,in CC#N,318 nm
CCCCCCc1ccc(-n2c3[n+](c4c5ccccc5c5ccccc5c42)[B-](C)(C)c2cc(-n4c5ccccc5c5ccccc54)ccc2-3)cc1,absorption maximum,in C1CCOC1,370 nm
same,absorption maximum,in CC#N,369 nm
same,absorption maximum,in Cc1ccccc1,375 nm
same,absorption maximum,in ClCCl,372 nm
C(=C\c1ncnc2ccccc12)/c1ccc(-c2ccc(N(c3ccccc3)c3ccccc3)cc2)cc1,absorption maximum,in ClCCl,402 nm
CCCCn1c(=O)c2cc3ccc4cccc5ccc(c2c1=O)c3c45,absorption maximum,in ClC(Cl)Cl,427 nm
c1ccc2cc(-n3cnc4ccccc43)ccc2c1,absorption maximum,in C1CCCCC1,275 nm
same,absorption maximum,in C1CCOC1,277 nm
same,absorption maximum,in CC#N,278 nm
same,absorption maximum,in CCO,277 nm
same,absorption maximum,in CCOC(C)=O,278 nm
same,absorption maximum,in CCOCC,276 nm
same,absorption maximum,in CO,275 nm
same,absorption maximum,in Cc1ccccc1,275 nm
same,absorption maximum,in ClC(Cl)Cl,276 nm
CCCCCCCCCCCCn1cccc1/C=C/c1ccc(/C=C/c2cccn2CCCCCCCCCCCC)cc1,absorption maximum,in Cc1ccccc1,398 nm
O=C1c2ccccc2C(=O)C1C1C(=O)c2c3ccccc3cc3cc4ccccc4c1c23 (centres undefined),absorption maximum,in ClCCl,505.72 nm
Cc1cc(C)n2c1C=C1c3ccccc3C(c3c[nH]c4ccccc34)=[N+]1[B-]2(F)F,absorption maximum,in C1CCOC1,583 nm
same,absorption maximum,in CC#N,575 nm
same,absorption maximum,in CCCCCC,580 nm
same,absorption maximum,in CO,579 nm
same,absorption maximum,in Cc1ccccc1,587 nm
same,absorption maximum,in ClCCl,581 nm
Nc1ccccc1C(=O)O,absorption maximum,in C1CCCCC1,338 nm
same,absorption maximum,in C1COCCO1,338 nm
same,absorption maximum,in CC#N,336 nm
same,absorption maximum,in CC(C)=O,336 nm
same,absorption maximum,in CCO,334 nm
same,absorption maximum,in CO,334 nm
same,absorption maximum,in CS(C)=O,342 nm
same,absorption maximum,in O,290 nm and 310 nm
same,absorption maximum,in OCC(F)(F)F,320 nm
same,absorption maximum,in c1ccccc1,340 nm
Clc1nnc(O/N=C/c2ccc(N(c3ccc(Br)cc3)c3ccc(Br)cc3)cc2)nn1,absorption maximum,in ClCCl,520 nm
CCn1ncc2c3c(C#N)c4c5ccccc5n(C)c4nc3ccc21,absorption maximum,in CCOC(C)=O,383 nm
CCCCN1/C(=C/C=C/C2=[N+](C)c3ccccc3C2(C)C)C(C)(C)c2c1ccc1ccccc21,absorption maximum,in CS(C)=O,572 nm
COc1cc2c(cc1OC)C1=C[C@H](c3ccc(C)cc3)C3(C(C#N)=C(C#N)N1CC2)c1ccccc1-c1ccccc13,absorption maximum,in ClCCl,317 nm
CC[N+]1(CC)CN2C(=N1)C(C(=O)O)=Cc1cc(C)c(C)cc12,absorption maximum,in O,378 nm
CC1=[N+]2C(=C(c3ccccc3)c3c4c(c(C)n3[B-]2(F)F)CCc2ccccc2-4)C2=C1CCc1ccccc12,absorption maximum,in CC#N,565 nm
Cc1ccc(-c2[nH]c(=O)n3c2-c2ccccc2C3=O)c(O)c1,absorption maximum,in CC#N,393 nm
same,absorption maximum,in CO,397 nm
same,absorption maximum,in ClCCl,393 nm
COCCC1=Cc2nc1ccc1[nH]c(cc1CCOC)c1nc(ccc3[nH]c2cc3CCOC)C(CCOC)=C1,absorption maximum,in Cc1ccccc1,638 nm
CCOC(=O)c1csc2[n+]1[B-](F)(F)OC(c1ccc(N(C)C)cc1)=N2,absorption maximum,in C1CCOC1,404 nm
same,absorption maximum,in CC#N,405 nm
same,absorption maximum,in Cc1ccccc1,406 nm
same,absorption maximum,in ClCCl,412 nm
CCN(C)c1ccc(C2=C3C(C)=CC(/C=C/c4ccc(OCCCN=[N+]=[N-])cc4)=[N+]3[B-](F)(F)n3c(C)cc(C)c32)cc1,absorption maximum,in CO,568 nm
COc1cc(OC)c2c(c1)c1cc3oc(=O)cc(C)c3cc1c1cc(OC)cc(OC)c12,absorption maximum,in ClC(Cl)Cl,390 nm
CC1=CC(C)=[N+]2C1=C(c1c(-c3ccccn3)nc3ccccn13)c1c(C)cc(C)n1[B-]2(F)F,absorption maximum,in ClCCl,518 nm
C=CCNc1ccc2ccc3oc4cc(=O)ccc-4nc3c2c1,absorption maximum,in CC#N,537 nm
same,absorption maximum,in CCO,531 nm
same,absorption maximum,in ClCCl,539 nm
same,absorption maximum,in O,522 nm
COc1ccc(N(c2ccccc2)c2cc3ccc4cc(N(c5ccccc5)c5ccc(OC)cc5)cc5ccc(c2)c3c45)cc1,absorption maximum,in Cc1ccccc1,453 nm
COc1ccc(/C=C2\OC(=O)c3ccccc32)cc1,absorption maximum,in CC#N,336 nm
CCn1c2ccccc2c2cc(/C=C/c3cc(/C=C/c4ccc5c(c4)c4ccccc4n5CC)[n+](CCCS(=O)(=O)[O-])c(/C=C/c4ccc5c(c4)c4ccccc4n5CC)c3)ccc21,absorption maximum,in C1CCOC1,464 nm
same,absorption maximum,in CC#N,458 nm
same,absorption maximum,in CC(C)=O,462 nm
same,absorption maximum,in Cc1ccccc1,466 nm
C(#Cc1ccc2ncsc2c1)c1ccc(N(c2ccccc2)c2ccccc2)cc1,absorption maximum,in Cc1ccccc1,365 nm
COc1ccc(-n2c3ccccc3c3cc(/C=C/C(=C(C#N)C#N)c4ccccc4)ccc32)cc1,absorption maximum,in C1CCOC1,448 nm
same,absorption maximum,in CC#N,444 nm
same,absorption maximum,in CC(C)=O,445 nm
same,absorption maximum,in CCOC(C)=O,443 nm
same,absorption maximum,in CO,449 nm
same,absorption maximum,in CS(C)=O,454 nm
same,absorption maximum,in Cc1ccccc1,450 nm
same,absorption maximum,in ClC(Cl)Cl,459 nm
FC(F)(F)c1ccc2c(c1)Nc1ccccc1S2,absorption maximum,in CC#N,322 nm
same,absorption maximum,in CO,324 nm
O=C1NC(=O)C(c2c[nH]c3ccccc23)=C1c1c[nH]c2ccccc12,absorption maximum,in C1CCOC1,450 nm
same,absorption maximum,in CC#N,446 nm
same,absorption maximum,in CC(C)OC(C)C,443 nm
same,absorption maximum,in CCCCOCCCC,445 nm
same,absorption maximum,in CCO,460 nm
same,absorption maximum,in CCOC(C)=O,445 nm
same,absorption maximum,in CN(C)C=O,454 nm
same,absorption maximum,in Cc1ccccc1,447 nm
same,absorption maximum,in ClCCl,448 nm
CCCCOc1c(OC)cc2cc(OC)c(OCCCC)c3c4c(OCCCC)c(OC)cc5cc(OC)c(OCCCC)c(c1c23)c54,absorption maximum,in ClCCl,451 nm
CCN(CC)c1ccc2c(c1)oc(=O)c1c(=O)oc3c(C)c4oc(=O)c5c(=O)oc6cc(N(CC)CC)ccc6c5c4cc3c12,absorption maximum,in CS(C)=O,463 nm
same,absorption maximum,in ClCCl,458 nm
CC(C)[Si]1(C(C)C)c2cc(C#N)ccc2-c2ccc(N(c3ccccc3)c3ccccc3)cc21,absorption maximum,in C1CCCCC1,391 nm
same,absorption maximum,in CC#N,381 nm
same,absorption maximum,in CCO,385 nm
same,absorption maximum,in CCOCC,383 nm
same,absorption maximum,in CS(C)=O,387 nm
same,absorption maximum,in ClCCl,388 nm
same,absorption maximum,in c1ccccc1,389 nm
c1cc2c3c(cccc3c1)-c1c-2ccc2c1ccc1ccccc12,absorption maximum,in CCCCCCC,405 nm
CC(C)(C)c1cc2c(c(C(C)(C)C)c1)O[B-](F)(F)[n+]1c-2nc(-c2ccccc2)c2cc(Cl)ccc21,absorption maximum,in Cc1ccccc1,420 nm
Cc1ccc(N2C(c3ccccc3N)=NC(c3ccccc3)C2c2ccccc2)cc1 (centres undefined),absorption maximum,in Cc1ccccc1,282 nm
CCN(CC)c1ccc2c(c1)OC1=[N+](c3ccc(I)cc3)[B-](F)(F)n3c(nc4ccccc43)C1=C2,absorption maximum,in ClCCl,496 nm
